Source: US7148009B2, “Cancer drug screen based on cell cycle uncoupling” (The Johns Hopkins University, priority 1996, dated 2006)

How the values were obtained:
[1] = system: HCT116 cells with (+/+) p21 genes; test: Apoptosis after drug treatment (phase contrast, H33258 staining, TUNEL), parental cells; format: cell-based, human; details: for cell fate (apoptosis) by phase contrast microscopy and H33258 staining: etoposide 5 ug/ml, camptothecan 0.1 ug/ml, time course
Procedure: (§1) HCT116 cells with (+/+) or without (−/−) p21 genes were generated by homologous recombination. Logarithmically-growing cells in McCoy's 5A medium with 10% fetal calf serum were treated with Adriamycin (0.2 ug/ml) for 90 hours. In FIG. 1b, the adherent cells were harvested by trypsinization and combined with cells floating in the media. After washing with Hanks Buffered Saline (HBS; Life Technologies), cells were resuspended in 40 ul HBS and added to 360 ul of a solution containing 0.7% NP-40, 4.7% formaldehyde and 11 ug/ml H133258 in phosphate buffered saline (PBS). Cells were then viewed under UV excitation and photographed with a Nikon Labophot microscope. In FIG. 1c, adherent cells were fixed in 1% formaldehyde, then incubated in the presence of exogenous terminal transferase and biotin-11-dUTP as previously described^7. Labeled cells were detected by immunoperoxidase staining (Vector).
(§2) Cells were grown, fixed, and stained as described in Example 1. Irradiation was delivered at 1 Gy/minute using a ^137Cs source. Apoptotic cells were recognized as condensed, punctate nuclei (examples in FIG. 1d) or ghosts with faintly stained, degrading nuclei. At least 200 cells were counted for each time point, and the experiment was repeated with results virtually identical to those shown. The error bars represent the Poisson standard deviation determined by taking the square root of counted events and converting it to percent abundance. All counting was done in a blinded fashion. The (+/−) cells contained one normal p21 allele and one allele deleted by homologous recombination^5.

[2] = system: HCT116 cells without (−/−) p21 genes; test: Apoptosis after drug treatment (phase contrast, H33258 staining, TUNEL), p21-deficient cells; format: cell-based, human
Procedure: as §1
as §2, with “At least 200 cells were counted for each time point, and the experiment was repeated with results virtually identical to those shown.” left out

[3] = system: HCT116 (+/−) cells, one normal p21 allele and one deleted; test: Apoptosis after drug treatment, heterozygous cells; format: cell-based, human; details: Adriamycin 0.2 ug/ml, etoposide 5 ug/ml, camptothecan 0.1 ug/ml
Procedure: as §1, §2

[4] = system: HCT116 p21+/+ cells; test: Cell cycle analysis by flow cytometry, parental cells; details: Adriamycin 0.2 ug/ml
[5] = system: HCT116 p21−/− cells; test: Cell cycle analysis by flow cytometry, p21-deficient cells; details: Adriamycin 0.2 ug/ml
[6] = p21−/− cells, Adriamycin 0.2 ug/ml, 90 hours
[7] = longer treatments (beyond 30 hours)

Compound | cell morphology, phase contrast microscopy ([1]; Adriamycin 0.2 ug/ml, 90 hours) | nuclear morphology after H33258 staining ([1]; Adriamycin 0.2 ug/ml, 90 hours) | response in a second, independently isolated p21−/− clone ([2]; Adriamycin 0.2 ug/ml, time course of apoptosis) | TUNEL staining of DNA breaks characteristic of apoptosis [2, 6] | cell morphology, phase contrast microscopy [2, 6] | nuclear morphology after H33258 staining [2, 6] | kinetics of apoptosis compared with parental cells [3] | cell cycle distribution by flow cytometry ([4]; 30 hours of exposure) | flow cytometry profile [4, 7] | cell cycle distribution by flow cytometry ([5]; 30 hours of exposure) | DNA content by flow cytometry [5, 7] | cell fate (apoptosis) by phase contrast microscopy and H33258 staining [1] | cell fate (apoptosis) by phase contrast microscopy and H33258 staining ([2]; p21−/− cells, etoposide 5 ug/ml, time course)
COc1cccc2c1C(=O)c1c(O)c3c(c(O)c1C2=O)C[C@@](O)(C(=O)CO)C[C@@H]3O[C@H]1C[C@H](N)[C@H](O)[C@H](C)O1 [Adriamycin] | remained attached to the plate and appeared morphologically normal | homogeneous and round | identical | stained intensely by TUNEL | shrank, rounded, and detached from the dish, suggesting apoptosis | classic condensed and punctate nuclear morphology | behaved similarly to the parental cells | blocked in G1 and G2 phases, with few cells in S | remained largely unchanged | a nearly pure population of G2-arrested cells was observed | began to accumulate DNA in excess of 4C, then died |  | 
CC[C@@]1(O)C(=O)OCc2c1cc1n(c2=O)Cc2cc3ccccc3nc2-1 [camptothecan] |  |  |  |  |  |  | revealed a heterozygote effect |  |  |  |  | eventually underwent apoptosis, but this was significantly delayed compared to p21-deficient cells | 
COc1cc([C@@H]2c3cc4c(cc3[C@@H](O[C@@H]3O[C@@H]5CO[C@@H](C)O[C@H]5[C@H](O)[C@H]3O)[C@H]3COC(=O)[C@H]23)OCO4)cc(OC)c1O [etoposide] |  |  |  |  |  |  | behaved similarly to the parental cells |  |  |  |  | remained healthy | died
